Test results as given in the NIST ThermoML archive (doi:10.1021/je900284z).
Where “and” joins values, the source holds several entries; their conditions need not be identical. Equal values may be shown once.

Details: Liquid; for viscosity: Falling or rolling sphere viscometry; for mass density: 101.33 kPa

CCCCC(CC)COC(=O)c1ccccc1 (stereo not drawn) [2-ethylhexyl benzoate]
Details	viscosity
263.15 K, 100 kPa	29.42 mPa·s and 29.39 mPa·s
268.15 K, 100 kPa	21.45 mPa·s and 21.43 mPa·s
273.15 K, 100 kPa	16.21 mPa·s and 16.22 mPa·s
273.15 K, 700 kPa	16.39 mPa·s
273.15 K, 14200 kPa	20.88 mPa·s
273.15 K, 16100 kPa	22.11 mPa·s
273.15 K, 29700 kPa	28.8 mPa·s
273.15 K, 45500 kPa	38.79 mPa·s
273.15 K, 47100 kPa	39.5 mPa·s
273.15 K, 60900 kPa	51.94 mPa·s
273.15 K, 81800 kPa	78.37 mPa·s
273.15 K, 102000 kPa	114.7 mPa·s
273.15 K, 110600 kPa	132.5 mPa·s
273.15 K, 149800 kPa	286.9 mPa·s
283.15 K, 100 kPa	10.07 mPa·s
293.15 K, 100 kPa	6.753 mPa·s and 6.756 mPa·s
298.15 K, 100 kPa	5.574 mPa·s and 5.529 mPa·s
298.15 K, 300 kPa	5.708 mPa·s
298.15 K, 900 kPa	5.771 mPa·s
298.15 K, 26000 kPa	8.4 mPa·s
298.15 K, 50900 kPa	12.07 mPa·s
298.15 K, 75600 kPa	17.19 mPa·s
298.15 K, 100800 kPa	24.58 mPa·s
298.15 K, 125500 kPa	34.9 mPa·s
298.15 K, 150900 kPa	49.92 mPa·s
298.15 K, 175100 kPa	70.34 mPa·s
298.15 K, 200700 kPa	101 mPa·s
298.15 K, 225200 kPa	143.1 mPa·s
298.15 K, 250700 kPa	206 mPa·s
303.15 K, 100 kPa	4.847 mPa·s
313.15 K, 100 kPa	3.641 mPa·s and 3.644 mPa·s and 3.646 mPa·s
323.15 K, 100 kPa	2.859 mPa·s and 2.857 mPa·s
323.15 K, 25900 kPa	3.952 mPa·s
323.15 K, 50900 kPa	5.32 mPa·s
323.15 K, 75800 kPa	7.088 mPa·s
323.15 K, 100600 kPa	9.368 mPa·s
323.15 K, 125700 kPa	12.33 mPa·s
323.15 K, 150400 kPa	16.17 mPa·s
323.15 K, 174800 kPa	20.75 mPa·s
323.15 K, 175600 kPa	21.33 mPa·s
323.15 K, 200800 kPa	28.03 mPa·s
323.15 K, 225600 kPa	36.82 mPa·s
323.15 K, 250400 kPa	48.19 mPa·s
323.15 K, 275200 kPa	62.86 mPa·s
323.15 K, 300000 kPa	82.18 mPa·s
323.15 K, 300100 kPa	82.04 mPa·s
333.15 K, 100 kPa	2.3 mPa·s
343.15 K, 100 kPa	1.834 mPa·s [middle of 5 runs]
348.15 K, 100 kPa	1.728 mPa·s and 1.73 mPa·s
348.15 K, 10800 kPa	1.956 mPa·s
348.15 K, 25400 kPa	2.3 mPa·s
348.15 K, 50800 kPa	2.994 mPa·s
348.15 K, 75900 kPa	3.826 mPa·s
348.15 K, 100800 kPa	4.842 mPa·s
348.15 K, 125700 kPa	6.009 mPa·s
348.15 K, 150700 kPa	7.634 mPa·s
348.15 K, 175700 kPa	9.511 mPa·s
348.15 K, 200700 kPa	11.85 mPa·s
348.15 K, 225700 kPa	14.77 mPa·s
348.15 K, 250500 kPa	18.23 mPa·s
348.15 K, 275300 kPa	22.56 mPa·s
348.15 K, 276300 kPa	22.83 mPa·s
348.15 K, 302300 kPa	28.48 mPa·s
348.15 K, 315200 kPa	31.58 mPa·s

Details	mass density [kg/m3]
273.15 K	981.12
278.15 K	977.18
283.15 K	973.25
288.15 K	969.32
293.15 K	965.4
298.15 K	961.49
303.15 K	957.57
313.15 K	949.73
323.15 K	941.92
333.15 K	934.11
343.15 K	926.28
353.15 K	918.45
363.15 K	910.61

CCCCC(CC)COC(=O)c1ccccc1C(=O)OCC(CC)CCCC (stereo not drawn) [bis(2-ethylhexyl) 1,2-benzenedicarboxylate]
Details	viscosity
273.15 K, 100 kPa	359.9 mPa·s and 359.7 mPa·s
273.15 K, 24100 kPa	680.7 mPa·s
283.15 K, 100 kPa	158 mPa·s and 158.6 mPa·s
283.15 K, 400 kPa	160.2 mPa·s
283.15 K, 20800 kPa	266.5 mPa·s
283.15 K, 41000 kPa	430.5 mPa·s
283.15 K, 60000 kPa	663.5 mPa·s
283.15 K, 80400 kPa	1034 mPa·s
283.15 K, 100100 kPa	1566 mPa·s
283.15 K, 123400 kPa	2473 mPa·s
298.15 K, 100 kPa	58.79 mPa·s and 57.58 mPa·s and 57.59 mPa·s
298.15 K, 600 kPa	59.35 mPa·s
298.15 K, 25800 kPa	103.4 mPa·s
298.15 K, 50000 kPa	167.4 mPa·s
298.15 K, 50900 kPa	174.2 mPa·s
298.15 K, 76300 kPa	287.8 mPa·s
298.15 K, 100500 kPa	455.2 mPa·s
298.15 K, 126600 kPa	730.7 mPa·s
298.15 K, 150400 kPa	1103 mPa·s
298.15 K, 174300 kPa	1631 mPa·s
298.15 K, 199800 kPa	2527 mPa·s
303.15 K, 100 kPa	44.29 mPa·s and 44.2 mPa·s and 43.49 mPa·s
310.93 K, 100 kPa	28.88 mPa·s [middle of 4 runs]
310.93 K, 47400 kPa	73.56 mPa·s
310.93 K, 75300 kPa	120.3 mPa·s
310.93 K, 99500 kPa	185.1 mPa·s
310.93 K, 148600 kPa	413.1 mPa·s
310.93 K, 176000 kPa	617.9 mPa·s
310.93 K, 201800 kPa	912.7 mPa·s
310.93 K, 223800 kPa	1259 mPa·s
310.93 K, 247800 kPa	1794 mPa·s
310.93 K, 250800 kPa	1819 mPa·s
310.93 K, 274000 kPa	2555 mPa·s
313.15 K, 100 kPa	26.6 mPa·s and 26.58 mPa·s
323.15 K, 100 kPa	17.17 mPa·s and 17.01 mPa·s and 17.1 mPa·s
323.15 K, 700 kPa	17.26 mPa·s
323.15 K, 10600 kPa	20.76 mPa·s
323.15 K, 25700 kPa	27.26 mPa·s
323.15 K, 50700 kPa	42.19 mPa·s
323.15 K, 75600 kPa	63.74 mPa·s
323.15 K, 100600 kPa	94.67 mPa·s
323.15 K, 125600 kPa	138.7 mPa·s
323.15 K, 150600 kPa	200.2 mPa·s
323.15 K, 175600 kPa	286.3 mPa·s
323.15 K, 200300 kPa	403.4 mPa·s
323.15 K, 223100 kPa	539 mPa·s
323.15 K, 252300 kPa	794.8 mPa·s
323.15 K, 276700 kPa	1055.1 mPa·s
323.15 K, 295400 kPa	1355.1 mPa·s
323.15 K, 323700 kPa	1952.3 mPa·s
333.15 K, 100 kPa	11.73 mPa·s and 11.71 mPa·s
343.15 K, 100 kPa	8.499 mPa·s and 8.51 mPa·s
348.15 K, 100 kPa	7.416 mPa·s and 7.422 mPa·s
348.15 K, 50800 kPa	15.52 mPa·s
348.15 K, 54100 kPa	16.45 mPa·s
348.15 K, 75900 kPa	22.09 mPa·s
348.15 K, 100800 kPa	30.91 mPa·s
348.15 K, 103500 kPa	32.17 mPa·s
348.15 K, 125800 kPa	42.61 mPa·s
348.15 K, 150800 kPa	58.12 mPa·s
348.15 K, 175700 kPa	78.72 mPa·s
348.15 K, 200700 kPa	105.6 mPa·s
348.15 K, 225500 kPa	140.4 mPa·s
348.15 K, 250300 kPa	185.6 mPa·s
348.15 K, 275000 kPa	243.8 mPa·s
348.15 K, 299100 kPa	316.7 mPa·s
348.15 K, 324100 kPa	412.7 mPa·s
348.15 K, 348100 kPa	529.4 mPa·s
348.15 K, 371000 kPa	669 mPa·s

Details	mass density [kg/m3]
273.15 K	998.82
278.15 K	995.01
283.15 K	991.26
293.15 K	983.87
298.15 K	980.15
303.15 K	976.42
313.15 K	968.98
323.15 K	961.53
333.15 K	954.11
343.15 K	946.68
353.15 K	939.27
363.15 K	931.85
